Experimental data as given in patent US20200222347A1, “ANTIMICROBIALS AND METHODS OF USE THEREOF” (priority 2013, published 2020).
Entries after “also recorded” stand apart in the source; their conditions may differ.

Columns and labels:
[1] = system: normal human skin bacterial resident flora; assay: Human skin disinfection study, Loma Linda, Phase IV; format: in vivo; settings: for no growth cultures results after treatment, anaerobic / no growth cultures results after treatment, Aerobic: Phase IV, two applications
Experimental: Method: The variations in materials and methods in this phase were based upon results of the previous phases. They included changes in the solution, the method of dissolving the PCA, the timing of skin application, plus using two applications to simulate the present day recommendations of surgical skin preparation.
The method placed the 20 grams of ground PCA in sterile container with volume markers. Then added 85 ml of 91% isopropyl alcohol; warm and shake. […] A repeat of warming and shaking was instituted. The container was filled to 100 ml, warm and repeated the shaking. It took perhaps 15 to 20 minutes for the ground crystals to dissolve.
An area was marked at 4 corners on the anterior axilla area of both shoulders. There was a topical reagent application. After 5 minutes a second application was made. The control group was again Chloroprep®. The experimental side was applied with manual motion and pressure on a sterile sponge soaked with the PCA solution. The subjects put hands on head for 10 minutes and then 10 minutes of moving arms around. Culture #1 was harvested with scraping at 20 minutes post 2nd application. Subjects rested their arms at side for 40 minutes which is 60 minutes after the first application and 40 minutes after culture #1. A second culture is taken with scraping. The post application cultures were taken of each shoulder skin area with scraping with back side of a sterile surgical knife blade to maximize the yield.

[2] = system: skin stripped wounds infected with Pseudomonas aeruginosa (ATCC 27853); assay: Histology of stripped, infected and treated skin wound, Example 6; settings: 48 hours
[3] = system: Pseudomonas Aeruginosa ATCC 700888 biofilm; assay: Drip flow biofilm reactor, PCA coated cloth and sintered mesh, Example 7; format: cell-based
Source text: The cloth was dried when tested.

O=C(O)c1ccc(O)c(O)c1 [PCA, Protocatechuic acid]
removal of potential pathogens from skin ([1]; Phase IV solution: 20 grams of PCA, 91% isopropyl alcohol, 5 ml of essence of peppermint oil): effective in removing potential pathogens | no growth cultures results after treatment, anaerobic ([1]; 20 minutes): 4/12 | no growth cultures results after treatment, Aerobic ([1]; 20 minutes, PCA in 91% isopropyl alcohol and essential oil of peppermint): 12/12 | no growth cultures results after treatment, Aerobic ([1]; 60 minutes): 7/12 | no growth cultures results after treatment, anaerobic ([1]; 60 minutes): 6/12 | collagen between the epidermis and dermis ([2]; 25 mM): collagen proliferation between the epidermis and dermis; also recorded: collagen layer formation | dermal layer ([2]; 25 mM): thickened | hair follicles ([2]; 25 mM): prominent with multiple cellular lining | inflammation ([2]; 25 mM): abundant inflammation | surface cellularity ([2]; 25 mM): abundant and multiple cell layers | vascularity ([2]; 25 mM): moderate vascularity | dermal layer ([2]; 50 mM): thicker | hair follicles ([2]; 50 mM): double layer of cells | inflammation ([2]; 50 mM): increased in the dermis and below the muscle layer | surface cellularity ([2]; 50 mM): covered with multiple layers of cells | vascularity ([2]; 50 mM): increased vascularity | tissue repair / healing response by histology ([2]; PCA 25 and 50 mM, C3G 100 and 200 mM): stimulated tissue repair | effectiveness against Pseudomonas biofilm ([3]; 10% concentration of PCA (FIG. 33)): not as effective | effectiveness against Pseudomonas biofilm ([3]; 20% concentration of PCA in 70% isopropyl alcohol, dried coating (FIG. 34)): effective; also recorded: very effective
